Tests used:
[1] = test system: human sebaceous glands (hSGs); test: Sebum (normalized total lipids) of ex-vivo cultured human sebaceous glands; type: cell-based; settings: 5 μM
Procedure: Using micro-scissors and tweezers, hSGs were isolated from the pilosebaceous units of a scalp skin sample. They were seeded in 24-well plates at a density of 8 hSGs/well and then cultivated in 500 μl of modified William E medium. After 24 hours of culture, the viability of the hSGs was assessed by means of resazurine assay. […] The control received modified William E medium, while the samples submitted to experimental treatments received the same medium supplemented with the extracts. The culture medium was renewed every other day.

[2] = test system: IL-1α; test: IL-1α release by ex-vivo skin stimulated with 2% SDS (ELISA); type: cell-based, human; settings: 2% SDS stimulus, lenitive treatment 10 μM; Table 7
Procedure: In order to study the biological activity of the ethanol extract (EtOH) from Nannochloropsis sp. on the inflammatory response of skin to irritation, the experimental protocol hereinafter summarized was adopted: • i. ex-vivo skin samples (7 mm in diameter) were cultivated for 24 hours in 6-well plates (4 skin samples/well) with 2.5 ml/well of modified Williams E medium. The experimental design included the following experimental groups, each comprising 8 skin samples cultivated in 2 wells: • 1. control samples cultivated without receive any stimulus or treatment; • 2. samples stimulated with 2% SDS without subsequent lenitive treatment (negative control); • 3. samples stimulated with 2% SDS and then treated with dexamethasone at 10 μM (positive control). • 4. 2 groups of samples stimulated with 2% SDS and then treated with EtOH extract at 1 and 10 μg/ml respectively; • ii. After 24 hours of culture the culture medium was renewed and the experimental groups 2 to 4 received the irritant stimulus (2% SDS) through topical application of 4 μl of preparation for each skin sample. After 3 hours the stimulus was removed by mean of cotton buds and 4 μl of lenitive treatment was then administered topically to groups 3 to 4. Stimulus treatments were applied in 50% DMSO, while the lenitive treatments were in pure DMSO. • iii.

[3] = test system: ex-vivo cultured human skin; test: Melanogenesis in ex-vivo human skin culture (melanin content, Fontana-Masson staining); type: cell-based
Procedure: The adopted culture medium was a modified William-E, and it was renewed at day three of the tissue culture. […] On a daily basis, 4 μl of these extract preparations were applied topically to the cultured skin samples, while the control group received the same quantity of the pure DMSO. After six days of organ culture, histological sections were prepared from the skin samples, and quantitative changes of melanin content were investigated by adopting the Fontana-Masson staining technique. The variation in melanin content was estimated by image analysis of the microphotographs of histological sections of skin.

SMILES: COc1cc(CNC(=O)CCCC/C=C/C(C)C)ccc1O [Capsaicin]
- Sebum in hSGs as % ratio of the control group value ([1]; another donor (Table 11)): 66.5%
- Sebum in hSGs as % ratio of the control group value ([1]; another donor (Table 12)): 91.9%
- Sebum in hSGs as % ratio of the control group value ([1]; another donor (Table 13)): 45.6%

SMILES: C[C@@H]1C[C@H]2[C@@H]3CCC4=CC(=O)C=C[C@]4(C)[C@@]3(F)[C@@H](O)C[C@]2(C)[C@@]1(O)C(=O)CO [Dexam., dexamethasone]
- IL-1α [2]: 48.6 pg/mL
- IL-1α release [%], SDS group as reference (100%) [2]: 92.2%

SMILES: O=c1cc(CO)occ1O [KA, Kojic acid]
- Melanin content as % ratio of the control group performance ([3]; 0.1%, Table 6): 83.2%

SMILES: CC1=C(/C=C/C(C)=C/C=C/C(C)=C/C(=O)O)C(C)(C)CCC1 [Retinoic ac., Retinoic acid]
- Melanin content as % ratio of the control group performance ([3]; 10 μM, third donor (Table 5)): 82.4%
- Melanin content as % ratio of the control group performance ([3]; 100 μM, third donor (Table 5)): 88.3%

Reference: US11141371B2, “Extracts of Nannochloropsis sp. and their applications” (Cutech SRL, priority 2014, dated 2021)
